{"source": "patent US12280044B2", "about": "“Proteolysis-targeting chimera molecule and preparation method and use thereof” (GUANGZHOU MEDICAL UNIVERSITY, priority 2022, dated 2025)", "key": {"zebrafish [1]": {"system": "zebrafish", "assay": "Zebrafish experiment: melanin production in the back (gray value)", "format": "in vivo", "description": "(§1) Cultivation conditions for zebrafish and fish eggs: a temperature: 28° C.±1° C.; light: irradiation with a fluorescent lamp; and a light/dark cycle: 14 h light/10 h dark.\n1. A specific experimental method was as follows: • (1) In the afternoon of day 1, fish mating was conducted to produce 800 to 1,000 fish eggs in a same batch. […] In the afternoon of day 2, water was replaced by an E3 medium including a sample in a corresponding experimental group. • (3) Every morning thereafter, the original medium was replaced by a fresh E3 medium including a sample in a corresponding experimental group. • (4) After fish came out from an egg membrane, the egg membrane was removed, the plate was washed twice with an E3 medium, and an E3 medium including a sample in a corresponding experimental group was added, where a date on which the fish came out from the egg membrane was recorded as day 0. • (5) From day 1 to day 5, after a medium was changed every morning, 15 fish were randomly selected from each experimental group and tested under a stereo microscope to measure a gray value of a back. Survival rates of zebrafish under different drug treatments were counted."}, "zebrafish [2]": {"system": "zebrafish", "assay": "Zebrafish experiment: survival rates under drug treatment", "format": "in vivo", "description": "as §1\n1. A specific experimental method was as follows: • (1) In the afternoon of day 1, fish mating was conducted to produce 800 to 1,000 fish eggs in a same batch. Experimental groups: an untreated group (negative control), a TYR-4 drug group A3 (10 μM), an arbutin group 1 (10 μM), and an arbutin group 2 (20 mM). • (2) In the morning of day 2, fish eggs were collected and dispensed in a 24-well plate with about 10 embryos per well, where 12 wells were set for each treatment group, that is, about 120 embryos were adopted for each treatment group. In the afternoon of day 2, water was replaced by an E3 medium including a sample in a corresponding experimental group. • (3) Every morning thereafter, the original medium was replaced by a fresh E3 medium including a sample in a corresponding experimental group. • (4) After fish came out from an egg membrane, the egg membrane was removed, the plate was washed twice with an E3 medium, and an E3 medium including a sample in a corresponding experimental group was added, where a date on which the fish came out from the egg membrane was recorded as day 0. • (5) From day 1 to day 5, after a medium was changed every morning, 15 fish were randomly selected from each experimental group and tested under a stereo microscope to measure a gray value of a back. Survival rates of zebrafish under different drug treatments were counted."}, "zebrafish [3]": {"system": "zebrafish", "assay": "Zebrafish experiment: melanin precipitate after lysis on day 5", "format": "in vivo", "conditions": "10 μM", "description": "2. After photographing was completed on day 5, 100 zebrafish were taken from each group (only 80 to 90 live fish were left in the 10 μM arbutin group), transferred to a 1.5 mL EP tube, and washed twice with pure water, then 500 μL of 1 M Tris-HCl with a pH of 8.0 was added, ultrasonic lysis was conducted on ice (40% power, on 3 s/off 2 s per cycle, and ultrasonic time: 10 min), and a resulting lysis system was centrifuged at 12,000 rpm and 4° C. for 15 min to obtain a melanin precipitate."}, "[4]": {"assay": "Performance test: cytotoxicity", "format": "cell-based", "description": "(§2) The cytotoxicity, TYR-inhibiting efficiency, and solubility of the molecule A3 were tested."}, "[5]": {"assay": "Performance test: solubility", "format": "physicochemical", "conditions": "organic solvent or mixture; in DMSO", "description": "as §2"}, "TYR [6]": {"molecular_target": "T1, TYR (Homo sapiens, UniProt P14679)", "T1 sequence (P14679 19-529)": "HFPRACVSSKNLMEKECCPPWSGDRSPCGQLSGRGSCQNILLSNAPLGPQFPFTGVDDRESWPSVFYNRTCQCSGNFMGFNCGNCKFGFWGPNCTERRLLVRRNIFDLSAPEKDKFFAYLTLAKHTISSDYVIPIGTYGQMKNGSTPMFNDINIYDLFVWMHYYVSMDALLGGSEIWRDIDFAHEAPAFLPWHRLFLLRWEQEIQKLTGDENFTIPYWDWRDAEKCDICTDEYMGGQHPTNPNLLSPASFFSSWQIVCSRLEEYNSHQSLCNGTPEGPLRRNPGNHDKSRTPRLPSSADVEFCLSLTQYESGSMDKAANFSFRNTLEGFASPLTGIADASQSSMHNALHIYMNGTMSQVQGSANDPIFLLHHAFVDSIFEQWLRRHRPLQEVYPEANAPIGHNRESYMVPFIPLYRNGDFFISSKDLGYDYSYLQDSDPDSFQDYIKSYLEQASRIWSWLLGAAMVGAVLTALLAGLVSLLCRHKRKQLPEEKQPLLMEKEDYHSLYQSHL", "assay": "Performance test: TYR-inhibiting efficiency", "format": "cell-based", "design": "endogenous in cells", "description": "as §2\nThe PROTAC molecule of the present application has excellent solubility and safety (IC50>200 μM) and a low effective concentration (1 μM to 10 μM)."}, "TYR [7]": {"molecular_target": "T1, TYR", "assay": "TYR protein level by western blot in human melanoma cell line A375", "format": "cell-based", "design": "endogenous in cells; host or cells: MNT-1 human melanoma cells", "conditions": "A375 cells, 24 h, 0.001-10 μmol/L, WB", "description": "The human melanoma cell line A375 was treated for 24 h with the molecule A3 at a concentration gradient, and then a protein sample was collected and tested by western blot (WB) to determine a protein level of TYR. In the concentration gradient, final concentrations of the molecule A3 were 0.001 μmol/L, 0.01 μmol/L, 0.1 μmol/L, 1 μmol/L, and 10 μmol/L, respectively."}, "TYR [8]": {"molecular_target": "T1, TYR", "assay": "TYR protein level by western blot in human melanoma cell line MNT-1", "format": "cell-based", "design": "endogenous in cells; host or cells: MNT-1 human melanoma cells", "conditions": "MNT-1 cells, 24 h, 0.001-10 μmol/L, WB", "description": "The human melanoma cell line MNT-1 was treated for 24 h with the molecule A3 at a concentration gradient, and then a protein sample was collected and tested by WB to determine a protein level of TYR. In the concentration gradient, final concentrations of the molecule A3 were 0.001 μmol/L, 0.01 μmol/L, 0.1 μmol/L, 1 μmol/L, and 10 μmol/L, respectively."}, "TYR [9]": {"molecular_target": "T1, TYR", "assay": "Degradation pathway detection with proteasome inhibitor MG132 in MNT-1 cells (WB of TYR)", "format": "cell-based", "design": "endogenous in cells; host or cells: MNT-1 human melanoma cells", "conditions": "1 or 10 μM A3 + 10 μM MG132, 24 h", "from_the_text": "A molecular mechanism of the PROTAC molecule to degrade a target protein is as follows: molecular elements at two ends of the PROTAC molecule bind to the target protein and an ubiquitin ligase, respectively, such that the target protein is ubiquitinated and thus degraded by a proteasome. A proteasome inhibitor MG132 was used to determine whether an impact of the PROTAC molecule on a protein level of TYR was based on a proteasome degradation pathway.\nA specific treatment method included the following steps: • (1) MNT-1 cells were plated on a 6-well plate and allowed to grow adherently until a cell confluency was 80%. • (2) The cells were treated according to the following groups: • (a) a normal control group; (b) a 1 μM A3 treatment group; (c) a 10 μM A3 treatment group; (d) a 10 μM MG132 treatment group; (e) a 1 μM A3+10 μM MG132 treatment group; and (f) a 10 μM A3+10 μM MG132 treatment group. • (3) 24 h after a treatment, cells in each group were collected and lysed, and a resulting total protein lysate was collected and tested by WB to determine an expression level of TYR."}}, "note": "pEC50, pIC50: −log10 of the molar value."}
{"molecule": "O=C1CCC(N2Cc3c(NC(=O)CCCCCCNC(=O)c4cc[nH]c(=S)c4)cccc3C2=O)C(=O)N1", "note": "(stereo not shown) [A3]", "values": [{"measurement": "inhibitory effect on melanin production in zebrafish (gray value of back)", "setting": "zebrafish [1]; 10 μM, day 1 to day 5", "value": "significant inhibitory effect on melanin production in zebrafish"}, {"measurement": "effect on melanin production compared with arbutin", "setting": "zebrafish [1]; same concentration (10 μM)", "value": "better effect than common whitening agents such as arbutin"}, {"measurement": "toxic and side effects, death", "setting": "zebrafish [2]; effective concentration (10 μM)", "value": "does not have any toxic and side effects and does not cause death"}, {"measurement": "melanin precipitate amount versus untreated group", "setting": "zebrafish [3]", "value": "significantly smaller than the melanin precipitate amount in the untreated group"}, {"measurement": "pIC50", "setting": "[4]", "value": "< 3.70"}, {"measurement": "solubility", "setting": "[5]", "value": "> 523", "unit": "mg/mL"}, {"measurement": "pEC50", "setting": "TYR [6]", "value": "> 5.00"}, {"measurement": "inhibitory effect on TYR protein level", "setting": "TYR [7]", "value": "has an inhibitory effect on TYR in the cell line A375"}, {"measurement": "inhibitory effect on TYR protein level", "setting": "TYR [8]", "value": "has a significant inhibitory effect on TYR in the cell line MNT-1"}, {"measurement": "degradation effect on TYR after MG132 is added", "setting": "TYR [9]", "value": "significantly inhibited after MG132 is added"}]}
{"molecule": "OC[C@H]1O[C@@H](Oc2ccc(O)cc2)[C@H](O)[C@@H](O)[C@@H]1O", "note": "[arbutin]", "values": [{"measurement": "day on which death occurs", "setting": "zebrafish [2]; 10 μM", "value": 4, "unit": "days"}, {"measurement": "live fish left", "setting": "zebrafish [2]; 10 μM, day 5", "value": "80 to 90"}, {"measurement": "survival rate", "setting": "zebrafish [2]; 10 μM, day 5", "value": "about 80%"}, {"measurement": "day on which death occurs", "setting": "zebrafish [2]; 20 mM", "value": 3, "unit": "days"}, {"measurement": "survival", "setting": "zebrafish [2]; 20 mM, day 5", "value": "basically dies"}, {"measurement": "melanin precipitate amount versus untreated group", "setting": "zebrafish [3]", "value": "significantly smaller than the melanin precipitate amount in the untreated group"}]}
